Measurements: ChEMBL document CHEMBL1201862, “PubChem BioAssay data set” (2004)
Blank lines part the entries; values can stand above or below the molecule they belong to. Activity calls are given as the source filed them.

Key:
[1] = molecular target: Peroxisome proliferator-activated receptor gamma/Nuclear receptor coactivator 1 (Homo sapiens, UniProt P37231); assay: TR-FRET dose response biochemical High Throughput Screening assay for agonists of the steroid receptor coactivator 1 (SRC-1) recruitment by the peroxisome proliferator-activated receptor gamma (PPAR gamma): non-selective agonists. [Related pubchem assays (depositor defined):AID1300, AID1808, AID504735, AID631]; assay type: protein assay
Sequence of Peroxisome proliferator-activated receptor gamma/Nuclear receptor coactivator 1 (P37231 whole entry): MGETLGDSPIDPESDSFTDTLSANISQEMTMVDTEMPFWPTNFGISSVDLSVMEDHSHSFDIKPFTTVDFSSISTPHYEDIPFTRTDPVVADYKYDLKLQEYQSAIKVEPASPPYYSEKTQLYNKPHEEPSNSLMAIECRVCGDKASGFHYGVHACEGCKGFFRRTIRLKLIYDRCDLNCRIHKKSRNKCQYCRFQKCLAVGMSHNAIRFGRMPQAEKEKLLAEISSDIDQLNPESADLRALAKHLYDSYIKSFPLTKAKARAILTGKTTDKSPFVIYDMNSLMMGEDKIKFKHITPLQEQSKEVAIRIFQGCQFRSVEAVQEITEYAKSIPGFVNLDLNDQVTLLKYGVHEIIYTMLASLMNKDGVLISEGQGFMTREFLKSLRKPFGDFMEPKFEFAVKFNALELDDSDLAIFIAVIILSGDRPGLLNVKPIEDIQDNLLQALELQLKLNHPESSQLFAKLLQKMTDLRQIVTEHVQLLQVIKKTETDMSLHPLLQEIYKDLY
Sequence of Peroxisome proliferator-activated receptor gamma/Nuclear receptor coactivator 1 (Q15788 whole entry, further chain): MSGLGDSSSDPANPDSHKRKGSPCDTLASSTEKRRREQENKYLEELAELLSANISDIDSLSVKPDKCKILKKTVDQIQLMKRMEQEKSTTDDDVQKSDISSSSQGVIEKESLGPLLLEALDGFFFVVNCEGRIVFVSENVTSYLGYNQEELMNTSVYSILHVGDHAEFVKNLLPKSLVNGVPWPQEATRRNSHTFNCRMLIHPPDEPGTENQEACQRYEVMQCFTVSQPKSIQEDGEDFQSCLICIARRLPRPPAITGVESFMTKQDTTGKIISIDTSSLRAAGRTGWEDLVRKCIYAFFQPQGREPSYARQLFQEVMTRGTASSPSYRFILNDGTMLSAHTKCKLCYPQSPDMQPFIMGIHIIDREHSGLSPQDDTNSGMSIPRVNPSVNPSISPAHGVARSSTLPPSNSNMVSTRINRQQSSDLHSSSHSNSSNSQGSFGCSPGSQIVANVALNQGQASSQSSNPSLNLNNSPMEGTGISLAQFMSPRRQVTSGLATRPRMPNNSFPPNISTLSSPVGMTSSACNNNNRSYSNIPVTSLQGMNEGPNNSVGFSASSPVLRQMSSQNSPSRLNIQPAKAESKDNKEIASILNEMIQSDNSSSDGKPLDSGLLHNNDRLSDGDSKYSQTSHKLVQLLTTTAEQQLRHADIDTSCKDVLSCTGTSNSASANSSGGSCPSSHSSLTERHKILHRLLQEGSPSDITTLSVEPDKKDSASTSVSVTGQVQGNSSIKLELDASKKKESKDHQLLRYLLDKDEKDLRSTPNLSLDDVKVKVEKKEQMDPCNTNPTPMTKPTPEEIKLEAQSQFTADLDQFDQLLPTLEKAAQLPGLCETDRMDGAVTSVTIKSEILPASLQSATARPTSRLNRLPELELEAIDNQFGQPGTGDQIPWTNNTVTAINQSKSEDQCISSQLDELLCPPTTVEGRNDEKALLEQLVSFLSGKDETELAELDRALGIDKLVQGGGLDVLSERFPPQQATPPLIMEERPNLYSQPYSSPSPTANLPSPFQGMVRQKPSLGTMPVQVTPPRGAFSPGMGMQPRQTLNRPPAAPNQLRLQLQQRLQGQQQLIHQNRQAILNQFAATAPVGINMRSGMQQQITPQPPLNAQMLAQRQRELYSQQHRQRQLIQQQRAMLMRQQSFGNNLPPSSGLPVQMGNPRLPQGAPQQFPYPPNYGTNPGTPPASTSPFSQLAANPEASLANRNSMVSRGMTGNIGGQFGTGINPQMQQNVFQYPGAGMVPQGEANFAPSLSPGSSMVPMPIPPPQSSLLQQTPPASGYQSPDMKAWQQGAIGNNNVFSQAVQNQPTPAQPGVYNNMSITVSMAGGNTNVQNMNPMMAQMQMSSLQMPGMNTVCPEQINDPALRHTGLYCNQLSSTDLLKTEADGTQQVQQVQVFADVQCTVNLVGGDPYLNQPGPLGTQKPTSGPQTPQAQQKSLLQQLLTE

[2] = molecular target: Peroxisome proliferator-activated receptor gamma/Nuclear receptor coactivator 2 (Homo sapiens, UniProt P37231); assay: (§1) TR-FRET dose response biochemical High Throughput Screening assay for agonists of the steroid receptor coactivator 2 (SRC-2) recruitment by the peroxisome proliferator-activated receptor gamma (PPAR gamma): non-selective agonists. [Related pubchem assays: 1297, 1032 ]; assay type: functional
Sequence of Peroxisome proliferator-activated receptor gamma/Nuclear receptor coactivator 2 (P37231 whole entry): as the sequence (P37231 whole entry) above
Sequence of Peroxisome proliferator-activated receptor gamma/Nuclear receptor coactivator 2 (Q15596 whole entry, further chain): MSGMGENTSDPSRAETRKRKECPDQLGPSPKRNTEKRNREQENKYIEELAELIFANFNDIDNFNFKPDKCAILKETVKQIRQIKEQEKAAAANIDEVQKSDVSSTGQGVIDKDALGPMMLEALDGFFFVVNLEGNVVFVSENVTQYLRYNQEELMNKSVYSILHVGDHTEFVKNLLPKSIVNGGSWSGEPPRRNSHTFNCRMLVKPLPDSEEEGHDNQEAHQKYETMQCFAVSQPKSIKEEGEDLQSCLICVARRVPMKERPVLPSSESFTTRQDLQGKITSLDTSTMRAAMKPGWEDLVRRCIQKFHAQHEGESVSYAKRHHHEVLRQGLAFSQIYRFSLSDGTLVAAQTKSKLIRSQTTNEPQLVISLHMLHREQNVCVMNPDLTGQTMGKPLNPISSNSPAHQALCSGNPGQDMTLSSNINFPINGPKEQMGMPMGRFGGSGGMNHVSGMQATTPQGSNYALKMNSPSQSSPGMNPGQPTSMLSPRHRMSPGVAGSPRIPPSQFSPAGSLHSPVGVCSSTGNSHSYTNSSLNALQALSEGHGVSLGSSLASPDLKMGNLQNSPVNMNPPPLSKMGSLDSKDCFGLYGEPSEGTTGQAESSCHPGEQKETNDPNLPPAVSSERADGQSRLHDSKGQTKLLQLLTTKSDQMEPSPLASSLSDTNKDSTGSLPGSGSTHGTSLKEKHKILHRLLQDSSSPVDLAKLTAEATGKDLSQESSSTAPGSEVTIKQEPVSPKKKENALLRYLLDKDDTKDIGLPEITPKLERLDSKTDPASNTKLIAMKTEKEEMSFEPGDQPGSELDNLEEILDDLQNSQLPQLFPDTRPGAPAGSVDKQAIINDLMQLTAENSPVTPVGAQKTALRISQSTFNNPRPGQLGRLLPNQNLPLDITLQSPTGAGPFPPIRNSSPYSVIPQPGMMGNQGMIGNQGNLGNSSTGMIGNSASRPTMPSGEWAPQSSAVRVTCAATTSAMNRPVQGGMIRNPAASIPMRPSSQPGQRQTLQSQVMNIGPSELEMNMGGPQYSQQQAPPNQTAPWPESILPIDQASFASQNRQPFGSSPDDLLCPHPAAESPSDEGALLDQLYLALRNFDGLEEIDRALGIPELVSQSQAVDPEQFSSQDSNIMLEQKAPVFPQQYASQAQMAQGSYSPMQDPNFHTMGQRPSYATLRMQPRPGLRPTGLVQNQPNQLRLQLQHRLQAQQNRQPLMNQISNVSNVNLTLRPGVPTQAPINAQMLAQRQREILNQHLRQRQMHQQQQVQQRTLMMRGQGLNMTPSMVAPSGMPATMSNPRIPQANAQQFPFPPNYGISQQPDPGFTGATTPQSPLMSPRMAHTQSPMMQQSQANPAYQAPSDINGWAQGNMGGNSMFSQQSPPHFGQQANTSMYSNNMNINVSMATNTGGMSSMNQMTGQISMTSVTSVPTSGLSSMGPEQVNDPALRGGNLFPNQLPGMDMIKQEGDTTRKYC

[3] = molecular target: Peroxisome proliferator-activated receptor gamma/Nuclear receptor coactivator 3 (Homo sapiens, UniProt P37231); assay: as §1, with “3 (SRC-3)” for “2 (SRC-2)”, “1301 (Confirmation screen.), 1048 (Primary screen.)]” for “1297, 1032 ]”; assay type: functional
CAAX prenyl protease 2 = molecular target: T1, CAAX prenyl protease 2 (Saccharomyces cerevisiae S288c, UniProt Q03530); assay type: biochemical
T1 sequence (Q03530 whole entry): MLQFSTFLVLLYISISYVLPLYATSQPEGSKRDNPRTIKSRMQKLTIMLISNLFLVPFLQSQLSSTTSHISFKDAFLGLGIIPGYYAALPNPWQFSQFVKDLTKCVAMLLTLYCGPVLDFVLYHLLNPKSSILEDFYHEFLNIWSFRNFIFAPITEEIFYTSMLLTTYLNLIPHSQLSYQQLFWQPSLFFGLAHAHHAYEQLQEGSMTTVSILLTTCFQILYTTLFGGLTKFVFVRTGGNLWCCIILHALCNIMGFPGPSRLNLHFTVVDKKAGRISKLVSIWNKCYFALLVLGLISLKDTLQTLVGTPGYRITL

[4] = molecular target: T2, Tyrosine-protein phosphatase non-receptor type 7 (Homo sapiens, UniProt P35236); assay: redox-active compounds inhibiting HePTP phosphatase – biochemical, fluorescence, mechanism study (AID 2068); assay type: functional
T2 sequence (P35236 whole entry): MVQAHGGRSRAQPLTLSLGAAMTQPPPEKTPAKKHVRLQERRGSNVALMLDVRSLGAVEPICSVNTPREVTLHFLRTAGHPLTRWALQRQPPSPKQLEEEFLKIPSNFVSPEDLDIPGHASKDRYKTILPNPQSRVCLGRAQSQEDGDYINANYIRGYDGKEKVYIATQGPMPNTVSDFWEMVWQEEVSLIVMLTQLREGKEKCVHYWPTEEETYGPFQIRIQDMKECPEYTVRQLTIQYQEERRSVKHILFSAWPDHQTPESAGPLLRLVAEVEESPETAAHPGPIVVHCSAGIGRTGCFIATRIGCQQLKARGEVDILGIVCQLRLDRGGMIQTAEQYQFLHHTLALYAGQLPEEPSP

[5] = molecular target: T3, Dual specificity protein phosphatase 6 (Rattus norvegicus, UniProt Q64346); assay type: functional;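 further: confirmatory in vitro dose-response testing of MKP-3 inhibition; recombinant His-tagged MKP-3 made in E. coli BL21 with OMFP substrate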
T3 sequence (Q64346 whole entry): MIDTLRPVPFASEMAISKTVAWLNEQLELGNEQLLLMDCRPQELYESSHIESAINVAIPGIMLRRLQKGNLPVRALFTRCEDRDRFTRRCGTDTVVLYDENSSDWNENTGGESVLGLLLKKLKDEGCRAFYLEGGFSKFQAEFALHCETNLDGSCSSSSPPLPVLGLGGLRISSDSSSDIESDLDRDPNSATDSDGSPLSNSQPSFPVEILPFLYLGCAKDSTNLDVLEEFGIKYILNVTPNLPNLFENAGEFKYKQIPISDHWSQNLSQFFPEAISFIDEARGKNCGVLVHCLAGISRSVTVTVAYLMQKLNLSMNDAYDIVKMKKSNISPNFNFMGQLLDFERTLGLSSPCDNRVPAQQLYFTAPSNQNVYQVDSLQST

Cytochrome P450 2C9 = Cytochrome P450 2C9 (Homo sapiens, UniProt P11712); conditions: Potency
Sequence of Cytochrome P450 2C9 (P11712 whole entry): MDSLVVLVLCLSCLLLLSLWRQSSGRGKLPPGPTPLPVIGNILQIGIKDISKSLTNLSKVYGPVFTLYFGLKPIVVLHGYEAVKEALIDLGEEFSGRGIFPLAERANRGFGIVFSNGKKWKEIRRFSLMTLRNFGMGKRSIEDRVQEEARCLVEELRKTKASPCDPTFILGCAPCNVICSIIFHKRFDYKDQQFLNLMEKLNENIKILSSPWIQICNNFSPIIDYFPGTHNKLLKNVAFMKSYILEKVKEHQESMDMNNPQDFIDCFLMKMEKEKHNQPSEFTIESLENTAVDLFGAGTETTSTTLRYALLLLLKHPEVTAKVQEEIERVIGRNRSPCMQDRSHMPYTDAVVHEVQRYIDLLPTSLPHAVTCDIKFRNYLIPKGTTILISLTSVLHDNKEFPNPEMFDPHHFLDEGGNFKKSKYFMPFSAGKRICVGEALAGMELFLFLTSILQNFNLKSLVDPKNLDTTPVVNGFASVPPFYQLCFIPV

[6] = molecular target: DNA dC->dU-editing enzyme APOBEC-3A (Homo sapiens, UniProt P31941); assay: Dose Response confirmation of small molecule APOBEC3A DNA Deaminase Inhibitors via a fluorescence-based single-stranded DNA deaminase assay. [Related pubchem assays (depositor defined):AID493011, AID493024]; assay type: functional
Sequence of DNA dC->dU-editing enzyme APOBEC-3A (P31941 whole entry): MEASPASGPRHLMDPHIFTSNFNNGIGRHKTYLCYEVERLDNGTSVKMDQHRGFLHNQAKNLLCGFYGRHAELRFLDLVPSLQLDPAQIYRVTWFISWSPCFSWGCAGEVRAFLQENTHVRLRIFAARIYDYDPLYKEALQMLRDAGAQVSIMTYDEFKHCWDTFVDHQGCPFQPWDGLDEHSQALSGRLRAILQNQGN

[7] = molecular target: DNA dC->dU-editing enzyme APOBEC-3G (Homo sapiens, UniProt Q9HC16); assay type: functional;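 further: Dose-response counterscreen measuring inhibition of APOBEC3G DNA deaminase activity, run while confirming APOBEC3A inhibitors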
Sequence of DNA dC->dU-editing enzyme APOBEC-3G (Q9HC16 whole entry): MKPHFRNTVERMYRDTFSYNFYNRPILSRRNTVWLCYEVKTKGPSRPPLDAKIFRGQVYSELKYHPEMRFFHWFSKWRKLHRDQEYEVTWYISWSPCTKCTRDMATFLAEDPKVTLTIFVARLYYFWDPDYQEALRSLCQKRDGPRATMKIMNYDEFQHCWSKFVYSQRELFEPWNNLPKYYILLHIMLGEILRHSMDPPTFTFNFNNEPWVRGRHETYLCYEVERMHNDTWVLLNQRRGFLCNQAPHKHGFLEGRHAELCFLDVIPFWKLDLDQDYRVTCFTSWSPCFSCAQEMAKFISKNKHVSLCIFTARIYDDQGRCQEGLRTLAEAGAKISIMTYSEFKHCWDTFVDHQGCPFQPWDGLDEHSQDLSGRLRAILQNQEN

Cytochrome P450 2D6 = Cytochrome P450 2D6 (Homo sapiens, UniProt P10635); assay: qHTS Assay for Inhibitors and Substrates of Cytochrome P450 2D6. [Related pubchem assays: 410 ]; assay type: ADME; conditions: read-out: Potency
Estrogen receptor = molecular target: T4, Estrogen receptor (Homo sapiens, UniProt P03372);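 further: potency for inhibiting coactivator peptide recruitment to the receptor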
T4 sequence (P03372 whole entry): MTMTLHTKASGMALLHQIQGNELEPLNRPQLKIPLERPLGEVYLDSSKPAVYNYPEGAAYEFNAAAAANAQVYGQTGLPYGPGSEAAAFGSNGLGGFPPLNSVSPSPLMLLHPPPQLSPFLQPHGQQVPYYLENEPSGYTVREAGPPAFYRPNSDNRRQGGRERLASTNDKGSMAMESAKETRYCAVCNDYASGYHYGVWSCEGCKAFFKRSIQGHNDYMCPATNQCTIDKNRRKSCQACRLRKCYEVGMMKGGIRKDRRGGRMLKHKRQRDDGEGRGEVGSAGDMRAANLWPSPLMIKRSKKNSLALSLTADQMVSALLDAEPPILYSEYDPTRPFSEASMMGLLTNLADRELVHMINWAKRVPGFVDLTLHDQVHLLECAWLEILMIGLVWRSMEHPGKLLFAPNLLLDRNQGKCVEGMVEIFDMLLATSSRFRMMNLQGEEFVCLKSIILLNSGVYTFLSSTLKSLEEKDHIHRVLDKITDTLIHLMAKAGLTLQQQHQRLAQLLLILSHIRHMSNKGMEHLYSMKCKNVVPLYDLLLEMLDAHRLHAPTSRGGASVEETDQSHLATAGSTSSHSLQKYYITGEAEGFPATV

[8] = molecular target: G-protein coupled receptor 55 (Homo sapiens, UniProt Q9Y2T6); assay: selective activators of receptor GPR55 – imaging, U2OS cells, beta-arrestin-GFP redistribution, primary screen (AID 1961); assay type: functional

Structure (SMILES): COc1ccccc1C1=NN(C(S)=Nc2ccccc2)C(c2ccco2)C1 (centres undefined)
- EC50 [1]: 19.7 µM (inactive)
- EC50 [2]: > 79.4 µM (not active)
- EC50 [3]: > 79.4 µM (not active)

Structure (SMILES): O=c1c(-c2ccccc2)c(O)c2ccccc2n1-c1ccccc1
- AC50 (CAAX prenyl protease 2): 5.31 µM (active)

Structure (SMILES): COc1cc(C(=S)NCc2ccc(C)cc2C)ccc1O
- IC50 [4]: 1.64 µM (active)
- IC50 [5]: > 100 µM (inactive)

Structure (SMILES): COc1cc(C(=S)NCc2ccc(O)cc2)ccc1O
- IC50 [4]: 10.1 µM (active)
- IC50 [5]: > 100 µM (inactive)

Structure (SMILES): CCCC[n+]1c(C)sc2cc(OC)ccc21
- IC50 [6]: 36 µM (active)
- IC50 [7]: > 100 µM (inactive)

Structure (SMILES): O=C(NCCC1=CCCCC1)Nc1ccc2nc(-c3ccco3)c(-c3ccco3)nc2c1
- IC50 [4]: 2.73 µM (active)

Structure (SMILES): COCc1nnc(NC(=O)CCSc2ccccc2)s1
- EC50 [8]: > 32 µM (inactive)

Further lines, results first:

- AC50 (Cytochrome P450 2C9): 25.1 µM (inconclusive)
Structure (SMILES): CC(=O)O[C@@H]1CC[C@]2(C)[C@H]3CC[C@]4(C)[C@H](C[C@H]5CCCC[C@@]54C(C)=O)[C@@H]3CC(=O)[C@@]2(O)C1

- IC50 [6]: 5.54 µM (active)
- IC50 [7]: 12.6 µM (active)
Structure (SMILES): C[N+](C)(C)CCCCCC(=O)C=NO

- AC50 (Cytochrome P450 2C9): 6.31 µM (inconclusive)
Structure (SMILES): CC(C)C[C@@H](CC(=O)N[C@@H](CCC(=O)O)CC(=O)O)NC(=O)[C@@H]1CNCC[C@H]1NC(=O)C[C@@H](NC(=O)C[C@H](CO)NC(=O)[C@@H]1CNCC[C@H]1N)C(C)C

- AC50 (Cytochrome P450 2C9): 31.6 µM (inconclusive)
- AC50 (Cytochrome P450 2D6): 39.8 µM (inconclusive)
Structure (SMILES): NCCC[C@@H](CC(=O)N[C@@H]1CCNC[C@H]1C(=O)N[C@H](CC(=O)N[C@@H](CCC(=O)O)CC(=O)O)Cc1c[nH]c2ccccc12)NC(=O)C[C@H](Cc1c[nH]c2ccccc12)NC(=O)[C@@H]1CNCC[C@H]1N

- IC50 (Estrogen receptor): 35.2 µM (not active)
Structure (SMILES): CCOCCCNC(=O)c1cnc2ccc(S(=O)(=O)Nc3cccc(OC)c3)cc2c1O

- EC50 [1]: > 79.4 µM (inactive)
- EC50 [2]: > 79.4 µM (not active)
- EC50 [3]: > 79.4 µM (not active)
Structure (SMILES): CCn1c(=O)cc(SCC(=O)NCC2CCCO2)c2ccccc21 (centres undefined)

- EC50 [8]: > 32 µM (inactive)
Structure (SMILES): COc1ccc(/C=C2\Sc3ccc(C(=O)NC4CC4)cc3N(C)C2=O)cc1OC

- IC50 (Estrogen receptor): > 50 µM (not active)
Structure (SMILES): Cc1ccc2c(c1)N(CC(=O)NC1CCCc3ccccc31)C(=O)CO2 (centres undefined)
